From patent US8940771B2, “Organic compounds” (Novartis AG, priority 2007, dated 2015) come the findings set out here.

What all share (assay type): biochemical
In test [1] the target is PI3Kα (p85iSH2(461-568)-p110α(21-1068)-His, BV1075) (Homo sapiens (Human), UniProt P42336). Briefly: PI3K KinaseGlo assay, PI3Kalpha. Particulars: for pIC50: KinaseGlo, 1 μM ATP; for Selectivity PI3Kalpha vs. PI3Kdelta: ratio of PI3Kdelta IC50 to PI3Kalpha IC50. A general note: Kinase-Glo measures the ATP left after a reaction by luminescence.
Test [2] addresses PI3Kδ (p85iSH2(461-568)-p110δ(2-1044)-His, BV1060) (Homo sapiens (Human), UniProt O00329). Kind of test: PI3K KinaseGlo assay, PI3Kdelta. Particulars: 1 μM ATP, alpha vs. delta selectivity table.
Test [3] addresses PI3Kγ (p110γ(Δ143-[Met144-1102])-His, BV950) (Homo sapiens (Human), UniProt P48736). Kind of test: PI3K KinaseGlo assay, PI3Kgamma. Particulars: 1 μM ATP, four-isoform table.
Where [4] appears, read: alpha vs. delta selectivity table.

pIC50: −log10 of the molar value.

Sequence of PI3Kα (p85iSH2(461-568)-p110α(21-1068)-His, BV1075) (P42336 other isoform, or with tags, fused parts or gaps): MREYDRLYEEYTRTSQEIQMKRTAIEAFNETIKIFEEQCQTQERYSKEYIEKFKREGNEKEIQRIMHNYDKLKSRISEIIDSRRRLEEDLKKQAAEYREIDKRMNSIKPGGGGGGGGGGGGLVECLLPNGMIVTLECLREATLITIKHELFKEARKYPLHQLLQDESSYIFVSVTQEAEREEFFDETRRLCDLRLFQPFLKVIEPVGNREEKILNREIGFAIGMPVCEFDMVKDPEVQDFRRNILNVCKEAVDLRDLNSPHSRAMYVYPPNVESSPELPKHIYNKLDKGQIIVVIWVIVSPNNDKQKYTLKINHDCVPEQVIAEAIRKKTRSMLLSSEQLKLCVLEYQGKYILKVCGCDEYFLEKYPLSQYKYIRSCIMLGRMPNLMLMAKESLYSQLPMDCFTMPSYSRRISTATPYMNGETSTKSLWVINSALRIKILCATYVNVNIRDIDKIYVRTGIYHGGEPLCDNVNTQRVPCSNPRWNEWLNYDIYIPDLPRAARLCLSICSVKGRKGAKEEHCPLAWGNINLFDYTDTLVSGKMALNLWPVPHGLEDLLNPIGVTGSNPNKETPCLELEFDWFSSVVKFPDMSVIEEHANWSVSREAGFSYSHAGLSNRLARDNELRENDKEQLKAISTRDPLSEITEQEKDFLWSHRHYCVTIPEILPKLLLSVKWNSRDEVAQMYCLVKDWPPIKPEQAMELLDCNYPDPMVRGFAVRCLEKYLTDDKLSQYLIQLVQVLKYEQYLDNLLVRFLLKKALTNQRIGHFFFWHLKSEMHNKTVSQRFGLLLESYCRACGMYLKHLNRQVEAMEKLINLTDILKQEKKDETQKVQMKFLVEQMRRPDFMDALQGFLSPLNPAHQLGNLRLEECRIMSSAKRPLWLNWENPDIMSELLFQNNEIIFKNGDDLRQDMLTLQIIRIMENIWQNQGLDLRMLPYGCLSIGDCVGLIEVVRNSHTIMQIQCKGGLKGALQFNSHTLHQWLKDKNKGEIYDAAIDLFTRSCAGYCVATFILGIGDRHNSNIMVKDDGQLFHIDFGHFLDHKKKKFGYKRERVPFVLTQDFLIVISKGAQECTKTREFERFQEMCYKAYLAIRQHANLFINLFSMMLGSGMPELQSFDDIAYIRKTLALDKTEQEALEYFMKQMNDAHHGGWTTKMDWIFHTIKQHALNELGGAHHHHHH
Sequence of PI3Kδ (p85iSH2(461-568)-p110δ(2-1044)-His, BV1060) (O00329 other isoform, or with tags, fused parts or gaps): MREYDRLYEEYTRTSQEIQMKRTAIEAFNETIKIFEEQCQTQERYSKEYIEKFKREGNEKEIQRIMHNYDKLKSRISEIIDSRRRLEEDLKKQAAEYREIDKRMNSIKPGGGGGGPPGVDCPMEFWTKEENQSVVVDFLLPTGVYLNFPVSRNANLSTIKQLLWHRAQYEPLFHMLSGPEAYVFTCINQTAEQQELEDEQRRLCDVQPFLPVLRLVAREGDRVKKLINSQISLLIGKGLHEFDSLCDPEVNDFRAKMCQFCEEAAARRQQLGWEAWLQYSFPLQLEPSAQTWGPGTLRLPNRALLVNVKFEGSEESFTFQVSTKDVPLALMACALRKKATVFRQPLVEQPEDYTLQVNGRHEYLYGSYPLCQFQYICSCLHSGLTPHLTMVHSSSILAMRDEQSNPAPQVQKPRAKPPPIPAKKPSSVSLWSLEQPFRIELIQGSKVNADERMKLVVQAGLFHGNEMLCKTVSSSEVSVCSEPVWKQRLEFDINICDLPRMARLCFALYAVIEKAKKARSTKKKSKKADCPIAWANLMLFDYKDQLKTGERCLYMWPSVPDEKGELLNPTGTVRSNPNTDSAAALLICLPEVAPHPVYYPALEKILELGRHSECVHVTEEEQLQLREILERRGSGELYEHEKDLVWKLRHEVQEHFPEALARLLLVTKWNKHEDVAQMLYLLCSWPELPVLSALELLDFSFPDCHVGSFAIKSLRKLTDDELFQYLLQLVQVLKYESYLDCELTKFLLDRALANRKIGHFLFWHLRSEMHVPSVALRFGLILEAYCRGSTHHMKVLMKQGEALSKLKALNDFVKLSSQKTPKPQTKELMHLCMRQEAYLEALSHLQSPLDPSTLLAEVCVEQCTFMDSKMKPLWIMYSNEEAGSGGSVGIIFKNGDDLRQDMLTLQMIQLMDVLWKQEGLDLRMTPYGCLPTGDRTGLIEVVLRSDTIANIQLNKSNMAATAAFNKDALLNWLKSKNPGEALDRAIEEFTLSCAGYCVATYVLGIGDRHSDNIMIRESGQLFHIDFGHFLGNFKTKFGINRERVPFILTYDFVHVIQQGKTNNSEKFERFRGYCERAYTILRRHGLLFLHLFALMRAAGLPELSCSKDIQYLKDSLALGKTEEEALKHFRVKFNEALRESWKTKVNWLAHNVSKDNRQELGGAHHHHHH
Sequence of PI3Kγ (p110γ(Δ143-[Met144-1102])-His, BV950) (P48736 other isoform, or with tags, fused parts or gaps): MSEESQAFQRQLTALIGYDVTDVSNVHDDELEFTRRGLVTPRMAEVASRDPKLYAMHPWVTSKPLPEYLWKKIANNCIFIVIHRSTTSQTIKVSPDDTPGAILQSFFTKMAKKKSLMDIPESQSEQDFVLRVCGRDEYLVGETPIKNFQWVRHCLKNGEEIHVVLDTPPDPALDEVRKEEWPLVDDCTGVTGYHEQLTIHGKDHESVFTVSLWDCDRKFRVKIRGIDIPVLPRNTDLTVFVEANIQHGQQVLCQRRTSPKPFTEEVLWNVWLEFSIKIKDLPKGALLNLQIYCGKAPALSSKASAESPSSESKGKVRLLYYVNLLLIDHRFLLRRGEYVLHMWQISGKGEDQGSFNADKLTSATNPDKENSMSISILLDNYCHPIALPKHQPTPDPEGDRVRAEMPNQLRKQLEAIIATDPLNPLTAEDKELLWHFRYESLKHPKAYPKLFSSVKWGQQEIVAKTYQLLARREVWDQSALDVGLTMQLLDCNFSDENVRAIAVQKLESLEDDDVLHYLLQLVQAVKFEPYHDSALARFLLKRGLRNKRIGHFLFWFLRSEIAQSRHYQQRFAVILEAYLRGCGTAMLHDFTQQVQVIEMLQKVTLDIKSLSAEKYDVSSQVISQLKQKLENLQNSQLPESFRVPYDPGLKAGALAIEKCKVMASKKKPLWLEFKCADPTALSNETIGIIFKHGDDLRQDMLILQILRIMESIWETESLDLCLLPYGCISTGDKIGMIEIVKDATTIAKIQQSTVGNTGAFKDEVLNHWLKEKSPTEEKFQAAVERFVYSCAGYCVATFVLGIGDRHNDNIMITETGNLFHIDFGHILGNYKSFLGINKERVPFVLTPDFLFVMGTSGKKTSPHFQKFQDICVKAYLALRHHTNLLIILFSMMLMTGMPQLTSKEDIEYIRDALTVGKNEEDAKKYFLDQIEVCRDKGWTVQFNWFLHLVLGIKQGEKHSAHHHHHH

What is called pIC50 is the negative decadic logarithm of the IC50, by convention in mol/L. Low values mean a high IC50, high ones a low IC50. For the compound `Cc1nc(NC(=O)N2CCC[C@@]2(C)C(N)=O)sc1-c1ccnc(C(C)(C)C)n1` [Example 12, (S)-2-methyl-pyrrolidine-1,2-dicarboxylic acid 2-amide 1-{[5-(2-tert-butyl-pyrimidin-4-yl)-4-methyl-thiazol-2-yl]-amide}], the pIC50 is 7.82 in test [1] (setting [4]) and 6.01 in test [2]. In addition, the “Selectivity PI3Kalpha vs. PI3Kdelta” value in test [1] is given as 65-fold.

Turning to `Cc1nc(NC(=O)N2C[C@@H](F)C[C@H]2C(N)=O)sc1-c1ccnc(C(C)(C)C)n1` [Example 66], the pIC50 in test [1] (10 nM enzyme, 30 mins) was 7.40; in test [1] (setting [4]) it was 7.40; in test [2], 5.90. Also, the “Selectivity PI3Kalpha vs. PI3Kdelta” value in test [1] is on record as 32-fold.

Turning to `Cc1nc(NC(=O)N2C[C@H](N(C)C)C[C@H]2C(N)=O)sc1-c1ccnc(C(C)(C)C)n1` [Example 70, (2S,4R)-4-Dimethylamino-pyrrolidine-1,2-dicarboxylic acid 2-amide 1-{[5-(2-tert-butyl-pyrimidin-4-yl)-4-methyl-thiazol-2-yl]-amide}], the pIC50 is 7.85 in test [1] (setting [4]) and 5.46 in test [2]. In test [1], the “Selectivity PI3Kalpha vs. PI3Kdelta” value is 246-fold.

As to `[2H]C([2H])([2H])C(c1nccc(-c2sc(NC(=O)N3CCC[C@@]3(C)C(N)=O)nc2C)n1)(C([2H])([2H])[2H])C([2H])([2H])[2H]` [Example 111], in test [1] (10 nM enzyme, 30 mins), the pIC50 is 7.28.

In test [1] (10 nM enzyme, 30 mins), `COC[C@@]1(C(N)=O)CCCN1C(=O)Nc1nc(C)c(-c2ccnc(C(C)(C)C)n2)s1` [Example 112, (R)-2-Methoxymethyl-pyrrolidine-1,2-dicarboxylic acid 2-amide 1-{[5-(2-tert-butyl-pyrimidin-4-yl)-4-methyl-thiazol-2-yl]-amide}] showed a negative-log IC50 (pIC50) of 7.31.

In the case of `Cc1nc(NC(=O)N2CCC[C@]2(C(N)=O)C(F)F)sc1-c1ccnc(C(C)(C)C)n1` [Example 114, (S)-2-Difluoromethyl-pyrrolidine-1,2-dicarboxylic acid 2-amide 1-{[5-(2-tert-butyl-pyrimidin-4-yl)-4-methyl-thiazol-2-yl]-amide}], in test [1] (10 nM enzyme, 30 mins), the pIC50 was 6.89. Compared with the last compound, the pIC50 is 0.42 log units lower.

`CC1(c2cc(-c3cnc(NC(=O)N4CCC[C@@]4(C)C(N)=O)s3)ccn2)CC1` [Example 117, S)-2-Methyl-pyrrolidine-1,2-dicarboxylic acid 2-amide 1-({5-[2-(1-methyl-cyclopropyl)-pyridin-4-yl]-thiazol-2-yl}amide]: the pIC50 in test [1] (10 nM enzyme, 30 mins) is 7.59.

Take `CC(C)(c1cc(-c2cnc(NC(=O)N3CCC[C@@]3(C)C(N)=O)s2)ccn1)C(F)(F)F` [Example 119, S)-2-Methyl-pyrrolidine-1,2-dicarboxylic acid 2-amide 1-({5-[2-(2,2,2-trifluoro-1,1-dimethyl-ethyl)-pyridin-4-yl}-thiazol-2-yl]-amide]: in test [1] (10 nM enzyme, 30 mins), the pIC50 is 8.10.

On to `CCN(CC)c1cc(-c2cnc(NC(=O)N3CCC[C@@]3(C)C(N)=O)s2)ccn1` [Example 122, (S)-2-Methyl-pyrrolidine-1,2-dicarboxylic acid 2-amide 1-{[5-(2-diethylamino-pyridin-4-yl)-thiazol-2-yl]-amide}], for which the pIC50 in test [1] (10 nM enzyme, 30 mins) is 7.30.

In test [1] (10 nM enzyme, 30 mins), `COc1ccc(C(C)(C)c2cc(-c3cnc(NC(=O)N4CCC[C@@]4(C)C(N)=O)s3)ccn2)cc1` [Example 124, (S)-2-Methyl-pyrrolidine-1,2-dicarboxylic acid 2-amide 1-[(5-{2-[1-(4-methoxy-phenyl)-1-methyl-ethyl]-pyridin-4-yl}-thiazol-2-yl)-amide]] showed a negative logarithm of the IC50 (pIC50) of 7.55.

As to `CC1(c2cc(-c3sc(NC(=O)N4CCC[C@@]4(C)C(N)=O)nc3Cl)ccn2)CC1` [Example 129, S)-2-Methyl-pyrrolidine-1,2-dicarboxylic acid 2-amide 1-({4-chloro-5-[2-(1-methyl-cyclopropyl)-pyridin-4-yl]-thiazol-2-yl}-amide], the pIC50 in test [1] (10 nM enzyme, 30 mins) is 7.62.

On to `Cc1nc(NC(=O)N2CCC[C@@]2(C)C(N)=O)sc1-c1csc(CC2CC2)n1` [Example 151, (S)-2-Methyl-pyrrolidine-1,2-dicarboxylic acid 2-amide 1-[(2-cyclopropylmethyl-4′-methyl-[4,5′]bithiazolyl-2′-yl)-amide]], for which the pIC50 in test [3] was 6.03.
